Results on eleven compounds are retold here after patent publication US11208386B2, “Inhibitors of protein arginine deiminases (PADs) and methods of preparation and use thereof” (University of Massachusetts, priority 2016, dated 2021).

Holding throughout (format): biochemical
The target of one test is T1, PAD1 (Homo sapiens, UniProt Q9ULC6).
T1 construct: made in house
T1 sequence (Q9ULC6 1-663): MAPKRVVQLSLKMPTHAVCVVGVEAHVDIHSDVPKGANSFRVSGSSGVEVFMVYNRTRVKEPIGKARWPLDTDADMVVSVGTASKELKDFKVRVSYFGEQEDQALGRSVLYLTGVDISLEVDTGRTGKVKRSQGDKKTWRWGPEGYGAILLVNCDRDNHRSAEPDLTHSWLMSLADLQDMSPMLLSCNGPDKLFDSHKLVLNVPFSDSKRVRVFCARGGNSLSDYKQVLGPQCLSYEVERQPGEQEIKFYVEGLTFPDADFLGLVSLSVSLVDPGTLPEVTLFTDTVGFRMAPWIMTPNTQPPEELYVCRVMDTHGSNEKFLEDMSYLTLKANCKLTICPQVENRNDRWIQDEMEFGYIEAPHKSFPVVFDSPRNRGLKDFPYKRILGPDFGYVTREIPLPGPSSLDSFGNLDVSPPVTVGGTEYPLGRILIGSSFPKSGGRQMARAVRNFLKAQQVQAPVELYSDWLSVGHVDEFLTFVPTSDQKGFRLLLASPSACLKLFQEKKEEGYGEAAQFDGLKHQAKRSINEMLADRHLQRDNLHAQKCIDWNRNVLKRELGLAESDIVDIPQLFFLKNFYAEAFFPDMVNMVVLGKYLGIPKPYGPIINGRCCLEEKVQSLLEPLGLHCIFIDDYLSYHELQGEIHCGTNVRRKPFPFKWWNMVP
Briefly: Inactivation kinetics, PAD1. Particulars: for kinact/KI: a: single kobs determined, b: from a linear fit; for Fold PAD1 Selectivity: kinact/KI relative to least inhibited isozyme (1.0). The procedure: (§1) Inactivation kinetic parameters were determined by incubating PAD1, 2, or 4 (2.0 μM) or PAD3 (5.0 μM) in a pre-warmed (10 min; 37° C.) inactivation mixture (50 mM HEPES, 10 mM CaCl2, and 2 mM DTT, pH 7.6, with a final volume of 60 μL) containing various concentrations of inhibitor. Aliquots were removed at various time points and added to a pre-warmed (10 min, 37° C.) reaction mixture (50 mM HEPES, 50 mM NaCl, 10 mM CaC2, 2 mM DTT, and 10 mM BAEE or 10 mM BAA in the case of PAD3; pH 7.6). After 15 min, reactions were quenched in liquid nitrogen and citrulline production quantified using the COLDER assay. […] In Vitro Labeling of PADs with “Clickable” Probes BB-F-Yne (5u), BB-Cl-Yne (5v) and BIFYne (5w)

The target in the next test is T2, PAD2 (Homo sapiens, UniProt Q9Y2J8).
T2 construct: made in house
T2 sequence (Q9Y2J8 whole entry): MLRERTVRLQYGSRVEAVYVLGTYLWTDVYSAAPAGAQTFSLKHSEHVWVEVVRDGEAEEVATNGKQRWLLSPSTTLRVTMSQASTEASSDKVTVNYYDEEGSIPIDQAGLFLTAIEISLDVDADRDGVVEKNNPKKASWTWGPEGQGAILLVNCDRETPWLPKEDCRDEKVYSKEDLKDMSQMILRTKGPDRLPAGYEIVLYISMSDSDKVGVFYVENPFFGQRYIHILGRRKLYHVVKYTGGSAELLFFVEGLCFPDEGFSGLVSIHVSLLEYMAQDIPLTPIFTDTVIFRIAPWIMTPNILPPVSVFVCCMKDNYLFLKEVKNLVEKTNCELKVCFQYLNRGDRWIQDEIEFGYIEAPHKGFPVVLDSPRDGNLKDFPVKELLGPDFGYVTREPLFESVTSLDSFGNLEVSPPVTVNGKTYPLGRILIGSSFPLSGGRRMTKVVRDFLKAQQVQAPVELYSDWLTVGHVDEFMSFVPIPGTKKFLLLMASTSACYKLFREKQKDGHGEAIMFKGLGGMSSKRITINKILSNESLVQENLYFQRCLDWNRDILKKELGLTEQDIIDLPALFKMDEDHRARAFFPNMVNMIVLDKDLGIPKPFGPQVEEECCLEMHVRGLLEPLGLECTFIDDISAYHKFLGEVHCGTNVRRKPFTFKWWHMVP
Briefly: Inactivation kinetics, PAD2. The note with it: for kinact/KI: a: single kobs determined, b: from a linear fit, other footnotes: from kinact and KI; for Fold PAD2 Selectivity: kinact/KI relative to least inhibited isozyme (1.0). The procedure:
as §1

Another test deals with T3, PAD3 (Homo sapiens, UniProt Q9ULW8).
T3 construct: made in house
T3 sequence (Q9ULW8 1-664): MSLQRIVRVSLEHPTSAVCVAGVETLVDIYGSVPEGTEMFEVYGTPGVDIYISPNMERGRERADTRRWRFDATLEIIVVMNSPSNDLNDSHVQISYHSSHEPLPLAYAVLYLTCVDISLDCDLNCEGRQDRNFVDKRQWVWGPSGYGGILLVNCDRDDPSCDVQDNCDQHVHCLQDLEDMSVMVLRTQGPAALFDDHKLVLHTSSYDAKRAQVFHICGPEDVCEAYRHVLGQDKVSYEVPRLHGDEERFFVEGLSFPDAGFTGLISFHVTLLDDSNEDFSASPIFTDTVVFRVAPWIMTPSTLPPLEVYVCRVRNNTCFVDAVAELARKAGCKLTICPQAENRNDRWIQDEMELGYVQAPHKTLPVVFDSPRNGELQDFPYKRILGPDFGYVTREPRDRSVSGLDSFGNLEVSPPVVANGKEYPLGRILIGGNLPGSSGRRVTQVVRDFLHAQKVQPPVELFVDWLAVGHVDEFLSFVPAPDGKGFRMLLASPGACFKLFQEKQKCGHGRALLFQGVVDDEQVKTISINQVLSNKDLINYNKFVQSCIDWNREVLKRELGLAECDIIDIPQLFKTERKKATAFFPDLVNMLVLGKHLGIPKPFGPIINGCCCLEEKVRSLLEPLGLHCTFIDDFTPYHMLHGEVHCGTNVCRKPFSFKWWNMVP
The experiment in a line: Inactivation kinetics, PAD3. Particulars: for kinact/KI: a: single kobs determined; for Fold PAD3 Selectivity: kinact/KI relative to least inhibited isozyme (1.0). The procedure: as §1

A further test concerns the target T4, PAD4 (Homo sapiens, UniProt Q9UM07).
T4 construct: made in house
The experiment in a line: Inactivation kinetics, PAD4. The note with it: for kinact/KI: a: single kobs determined, b: from a linear fit; for Fold PAD4 Selectivity: kinact/KI relative to least inhibited isozyme (1.0). The procedure: as §1

Broadly, the kinact/KI is the maximal inactivation rate divided by the concentration that gives half of it. For orientation: kinact means the maximal first-order rate at which the target is inactivated.

T4 sequence (Q9UM07 whole entry): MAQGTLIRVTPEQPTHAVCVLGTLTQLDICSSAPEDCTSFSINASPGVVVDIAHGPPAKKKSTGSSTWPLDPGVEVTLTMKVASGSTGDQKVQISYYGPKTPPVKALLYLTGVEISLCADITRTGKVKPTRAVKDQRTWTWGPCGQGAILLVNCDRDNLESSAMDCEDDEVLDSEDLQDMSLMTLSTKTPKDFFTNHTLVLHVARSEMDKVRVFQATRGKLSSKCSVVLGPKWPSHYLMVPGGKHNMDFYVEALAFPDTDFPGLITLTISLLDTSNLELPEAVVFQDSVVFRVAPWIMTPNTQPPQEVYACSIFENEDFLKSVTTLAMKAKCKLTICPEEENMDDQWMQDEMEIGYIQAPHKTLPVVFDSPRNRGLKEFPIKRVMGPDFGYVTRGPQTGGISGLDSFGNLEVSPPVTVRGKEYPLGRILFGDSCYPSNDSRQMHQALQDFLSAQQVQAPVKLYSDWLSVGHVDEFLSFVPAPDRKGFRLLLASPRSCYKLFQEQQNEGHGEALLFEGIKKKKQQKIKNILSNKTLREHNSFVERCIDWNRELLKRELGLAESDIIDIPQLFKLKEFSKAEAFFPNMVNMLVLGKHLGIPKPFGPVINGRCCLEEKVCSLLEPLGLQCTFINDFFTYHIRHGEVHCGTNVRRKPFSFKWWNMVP

Turning to `N=C(CCl)NCCC[C@H](NC(=O)c1ccccc1C(=O)O)c1nc2ccccc2[nH]1` [Compound 6b, N1-(2-Carboxyl)benzol-N5-(2-chloro-1-iminoethyl)-1-(1H-benzo[d]imidazol-2-yl)-L-omithine], on PAD1, the kinact/KI is 475 M⁻¹ s⁻¹ and the “Fold PAD1 Selectivity” value was determined as 8.3 fold. For the same compound, at PAD2, the kinact/KI is 57.5 M⁻¹ s⁻¹ and the “Fold PAD2 Selectivity” value came out at 1.0 fold. At PAD3, the kinact/KI is 354 M⁻¹ s⁻¹ and the “Fold PAD3 Selectivity” value turned out to be 6.2 fold. Besides, at PAD4, the kinact/KI is 517 M⁻¹ s⁻¹ and the “Fold PAD4 Selectivity” value was found to be 9.0 fold.

For `Cn1c([C@H](CCCNC(=N)CCl)NC(=O)c2ccc(-c3ccccc3)cc2)nc2ccccc21` [Compound 5h, N1-[1,4′-Phenyl]benzol-N5-(2-chloro-1-iminoethyl)-1-(1-methyl-benzo[d]imidazol-2-yl)-L-ornithine], at PAD1, the kinact/KI was 112 M⁻¹ s⁻¹ and the “Fold PAD1 Selectivity” value is 2.8 fold. In addition, on PAD2, the kinact/KI is 40.5 M⁻¹ s⁻¹ and the “Fold PAD2 Selectivity” value was 1.0 fold. In addition, at PAD3, the second-order inactivation constant (kinact/KI) is 100 M⁻¹ s⁻¹ and the “Fold PAD3 Selectivity” value amounted to 2.5 fold. On PAD4, the kinact/KI is 51.8 M⁻¹ s⁻¹ and the “Fold PAD4 Selectivity” value amounted to 1.3 fold.

As for `COc1ccc2[nH]c([C@H](CCCNC(=N)CCl)NC(=O)c3cccc4c3C(=O)NC4)nc2c1` [Compound 7t, N1-(3-oxoisoindoline)benzoyl-N5-(2-chloro-1-iminoethyl)-1-(5-methoxy-1H-benzo[d]imidazol-2-yl)-L-ornithine], on PAD1, the inactivation efficiency (kinact/KI) is 2130 M⁻¹ s⁻¹ and the “Fold PAD1 Selectivity” value amounted to 7.3 fold. In addition, at PAD2, the kinact/KI is 1000 M⁻¹ s⁻¹ and the “Fold PAD2 Selectivity” value stood at 3.5 fold. Further, at PAD3, the kinact/KI is 291 M⁻¹ s⁻¹ and the “Fold PAD3 Selectivity” value was determined as 1.0 fold. Besides, on PAD4, the kinact/KI was 630 M⁻¹ s⁻¹ and the “Fold PAD4 Selectivity” value turned out to be 2.2 fold.

Turning to `CC(C)n1c([C@H](CCCNC(=N)CCl)NC(=O)c2ccccc2C(=O)O)nc2ccccc21` [Compound 6h, N1-(2-Carboxyl)benzoyl-N5-(2-chloro-1-iminoethyl)-1-(1-isopropyl-benzo[d]imidazol-2-yl)-L-ornithine], on PAD1, the kinact/KI was 817 M⁻¹ s⁻¹ and the “Fold PAD1 Selectivity” value came to 68 fold. Further, at PAD2, the kinact/KI is 452 M⁻¹ s⁻¹ and the “Fold PAD2 Selectivity” value amounted to 38 fold. Besides, at PAD3, the kinact/KI is 45 M⁻¹ s⁻¹ and the “Fold PAD3 Selectivity” value is 3.8 fold. Besides, at PAD4, the kinact/KI was 12 M⁻¹ s⁻¹ and the “Fold PAD4 Selectivity” value came out at 1.0 fold.

For `CCN1Cc2cccc(C(=O)N[C@@H](CCCNC(=N)CCl)c3nc4cc(OC)ccc4[nH]3)c2C1=O` [Compound 8x, N1-(2-ethyl-3-oxoisoindoline)benzoyl-N5-(2-chloro-1-iminoethyl)-1-(5-methoxy-1H-benzo[d]imidazol-2-yl)-L-ornithine], on PAD1, the inactivation efficiency (kinact/KI) is 504 M⁻¹ s⁻¹ and the “Fold PAD1 Selectivity” value is 7.8 fold. Further, at PAD2, the kinact/KI is 590 M⁻¹ s⁻¹ and the “Fold PAD2 Selectivity” value is on record as 9.1 fold. Moreover, at PAD3, the kinact/KI was 267 M⁻¹ s⁻¹ and the “Fold PAD3 Selectivity” value was 4.1 fold. Moreover, on PAD4, the inactivation efficiency (kinact/KI) is 64.8 M⁻¹ s⁻¹ and the “Fold PAD4 Selectivity” value is given as 1.0 fold.

Take `CCOc1cccc2c1nc([C@H](CCCNC(=N)CF)NC(=O)c1cccc3c1C(=O)N(CC)C3)n2C` [Compound 8m, N1-(2-ethyl-3-oxoisoindoline)benzoyl-N5-(2-fluoro-1-iminoethyl)-1-(4-ethoxy-1-methyl-benzo[d]imidazol-2-yl)-L-ornithine]: on PAD1, the kinact/KI was 497 M⁻¹ s⁻¹ and the “Fold PAD1 Selectivity” value is 8.9 fold. Further, at PAD2, the kinact/KI was 1430 M⁻¹ s⁻¹ and the “Fold PAD2 Selectivity” value worked out at 26 fold. Moreover, on PAD3, the kinact/KI is 57.8 M⁻¹ s⁻¹ and the “Fold PAD3 Selectivity” value is 1.0 fold. Also, at PAD4, the kinact/KI is 55.8 M⁻¹ s⁻¹ and the “Fold PAD4 Selectivity” value was 1.0 fold.

As for `COc1cccc2c1nc([C@H](CCCNC(=N)CF)NC(=O)c1cccc3c1C(=O)N(C)C3)n2C` [8a′], on PAD1, the second-order inactivation constant (kinact/KI) was 996 M⁻¹ s⁻¹ and the “Fold PAD1 Selectivity” value worked out at 30 fold. In addition, at PAD2 (PAD2, table footnote), the Ki was 12.8 µM and the kinact was 0.0455 s⁻¹. Also, on PAD2, the kinact/KI was 3540 M⁻¹ s⁻¹ and the “Fold PAD2 Selectivity” value came to 106 fold. For the same compound, on PAD3, the kinact/KI was 33.5 M⁻¹ s⁻¹ and the “Fold PAD3 Selectivity” value is 1.0 fold. Besides, on PAD4, the kinact/KI was 38.3 M⁻¹ s⁻¹ and the “Fold PAD4 Selectivity” value is on record as 1.1 fold.

For the compound `CCN1Cc2cccc(C(=O)N[C@@H](CCCNC(=N)CCl)c3nc4c(OC)cccc4n3C)c2C1=O` [Compound 8l, N1-(2-ethyl-3-oxoisoindoline)benzoyl-N5-(2-chloro-1-iminoethyl)-1-(4-methoxy-1-methyl-benzo[d]imidazol-2-yl)-L-ornithine], at PAD1, the inactivation efficiency (kinact/KI) was 963 M⁻¹ s⁻¹ and the “Fold PAD1 Selectivity” value is reported as 3.9 fold. Moreover, on PAD2, the kinact/KI was 1240 M⁻¹ s⁻¹ and the “Fold PAD2 Selectivity” value is 5.0 fold. Besides, at PAD3, the kinact/KI was 247 M⁻¹ s⁻¹ and the “Fold PAD3 Selectivity” value is recorded as 1.0 fold. Besides, at PAD4, the kinact/KI was 323 M⁻¹ s⁻¹ and the “Fold PAD4 Selectivity” value is 1.3 fold.

Regarding `N=C(CF)NCCC[C@H](NC(=O)c1ccccc1C(=O)O)c1nc2ccccc2[nH]1` [Compound 6a, N1-(2-Carboxyl)benzol-N5-(2-fluoro-1-iminoethyl)-1-(1H-benzo[d]imidazol-2-yl)-L-ornithine], at PAD1, the kinact/KI was 275 M⁻¹ s⁻¹ and the “Fold PAD1 Selectivity” value is recorded as 11 fold. Also, on PAD2, the inactivation efficiency (kinact/KI) was 25 M⁻¹ s⁻¹ and the “Fold PAD2 Selectivity” value is 1.0 fold. On PAD3, the kinact/KI is 108 M⁻¹ s⁻¹ and the “Fold PAD3 Selectivity” value is on record as 4.3 fold. Besides, on PAD4, the kinact/KI was 405 M⁻¹ s⁻¹ and the “Fold PAD4 Selectivity” value worked out at 16 fold.

Turning to `CC(C)n1c([C@H](CCCNC(=N)CF)NC(=O)c2cccc3c2C(=O)NC3)nc2ccccc21` [Compound 7g, N1-(3-oxoisoindoline)benzol-N5-(2-fluoro-1-iminoethyl)-1-(1-isopropyl-benzo[d]imidazol-2-yl)-L-ornithine], on PAD1, the kinact/KI was 104 M⁻¹ s⁻¹ and the “Fold PAD1 Selectivity” value is recorded as 12 fold. For the same compound, on PAD2, the kinact/KI is 172 M⁻¹ s⁻¹ and the “Fold PAD2 Selectivity” value is given as 20 fold. Besides, on PAD3, the kinact/KI was 8.5 M⁻¹ s⁻¹ and the “Fold PAD3 Selectivity” value stood at 1.0 fold. Further, on PAD4, the kinact/KI was 20.5 M⁻¹ s⁻¹ and the “Fold PAD4 Selectivity” value was 2.4 fold.

Turning to `N=C(CF)NCCC[C@H](NC(=O)c1ccc(-c2ccccc2)cc1)c1nc2cc(F)c(F)cc2[nH]1` [Compound 5q, N1-[1,1′-Phenyl]benzoyl-N5-(2-fluoro-1-iminoethyl)-1-(5,6-difluoro-1H-benzo[d]imidazol-2-yl)-L-ornithine], at PAD1, the kinact/KI is 31 M⁻¹ s⁻¹ and the “Fold PAD1 Selectivity” value worked out at 1.2 fold. At PAD2, the kinact/KI is 26.2 M⁻¹ s⁻¹ and the “Fold PAD2 Selectivity” value came out at 1.0 fold. Besides, at PAD3, the kinact/KI was 25.5 M⁻¹ s⁻¹ and the “Fold PAD3 Selectivity” value was 1.0 fold. At PAD4, the inactivation efficiency (kinact/KI) was 60 M⁻¹ s⁻¹ and the “Fold PAD4 Selectivity” value is recorded as 2.4 fold.
